Data as given in patent US8664380B2, “Heterocyclic compound and use thereof” (Takeda Pharmaceutical Company Limited, priority 2008, dated 2014).
Counter-ions that a name gives are not always drawn.

How the values were obtained:
Human renin = biological target: T1, Human renin (Homo sapiens, UniProt P00797); experiment: Human renin inhibition; angiotensin I formed from angiotensinogen quantified by EIA; conditions: for Human renin inhibitory activity, inhibitory activity (%) at 0.1 μM: 0.1 μM test compound, substrate human angiotensinogen, 37° C. 30 min
T1 sequence (P00797 67-406): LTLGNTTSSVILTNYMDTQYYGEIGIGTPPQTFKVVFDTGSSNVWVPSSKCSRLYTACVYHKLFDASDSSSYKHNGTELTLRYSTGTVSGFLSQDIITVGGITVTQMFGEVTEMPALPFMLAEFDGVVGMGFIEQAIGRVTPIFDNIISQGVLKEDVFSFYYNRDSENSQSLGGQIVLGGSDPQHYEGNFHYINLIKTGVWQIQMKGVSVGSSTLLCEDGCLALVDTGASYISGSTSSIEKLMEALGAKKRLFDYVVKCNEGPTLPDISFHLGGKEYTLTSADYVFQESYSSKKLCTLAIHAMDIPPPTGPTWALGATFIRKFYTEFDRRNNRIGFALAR
Description: As a substrate for renin activity measurement, the angiotensinogen mentioned in (5) above was used. 1 μl each of the test compound (containing 100% DMSO) was added to each well of a 384-well plate (ABgene). Renin was diluted with a buffer solution for reaction (20 mM sodium phosphate (pH 7.4)) to a concentration of 57 pM, and 14 μl each of the dilution was added to each well. The dilution was left to stand at 37° C. for 10 min, and then 5 μl of each of a 6 μM solution of substrate angiotensinogen was added to each well to initiate the reaction. […] The amount of angiotensin I produced by an enzyme reaction was quantified by Enzyme Immuno Assay (EIA) described below.
Anti-angiotensin I antibody (Peninsula Laboratories Inc.) diluted 5,000-fold with PBS was added to each well of a 384 well black plate (Nalge Nunc International Co., Ltd.) by 25 μl, and left standing overnight at 4° C. to immobilize the antibody in the plate. The antibody solution was removed, PBS solution (100 μl) containing 1% BSA was added to each well, and the mixture was left standing at room temperature for 2 hr for blocking. The blocking solution was removed, and each well was washed 5 times with 100 μl of 0.05% Tween20-PBS. […] Then, a biotinated angiotensin I solution (AnaSpec, 15 μl) prepared to 1.6 nM with a buffer [20 mM tris-hydrochloric acid (pH 7.4), 150 mM sodium chloride, 0.01% BSA, 0.05% Tween20] was added to each well, mixed with a plate mixer and left standing at room temperature for 1 hr. The solutions were removed from each well, and each well was washed 5 times with 100 μl of 0.05% Tween20-PBS. Horseradish peroxydase Streptavidin (PIERCE Biotechnology inc., 25 μl) diluted to 100 ng/ml with a buffer [20 mM tris-hydrochloric acid (pH 7.4), 150 mM sodium chloride, 0.1% BSA, 0.05% Tween 20] was added to each well and the mixture was left standing at room temperature for 30 min. The solutions were removed from each well, and each well was washed 5 times with 100 μl of 0.05% Tween20-PBS. SuperSignal ELISA femto Maximum Sensitivity Substrate (PIERCE Biotechnology Inc.) was added by 25 μl and luminescence intensity was measured by EnVision (Perkin Elmer Inc.). An analytical curve was drawn from the luminescence intensity of wells containing an angiotensin I standard solution, and the amount of angiotensin I produced by an enzyme reaction was calculated and used as an index of renin activity.

plasma renin activity = experiment: Ex vivo plasma renin activity (PRA) test after oral administration; format: in vivo, Macaca fascicularis; conditions: for Macaca fascicularis plasma renin activity, PPA inhibitory activity (%, n = 3-7): male macaca fascicularis, 1 mg/kg orally in 0.5% methylcellulose, plasma 4 hr after administration, amended with vehicle group
Description: Male macaca fascicularis was used. […] PRA was calculated by the following formula.

Compound	inhibition at 0.1 µM (Human renin; read-out: Human renin inhibitory activity, inhibitory activity (%) at 0.1 μM) [%]	inhibition at 1 mg/kg (plasma renin activity; Macaca fascicularis, po, 4 h, read-out: Macaca fascicularis plasma renin activity, PPA inhibitory activity (%, n = 3-7)) [%]	Human renin inhibitory activity, inhibitory activity (%) at 0.1 μM (Human renin) [%]	Macaca fascicularis plasma renin activity, PPA inhibitory activity (%, n = 3-7) (plasma renin activity) [%]
COCCCCc1c(C(=O)N(CC(C)C)[C@@H]2CNC[C@H](C(=O)N3CCOCC3)C2)nnn1-c1ccccc1Cl [Example 235, 1-(2-chlorophenyl)-5-(4-methoxybutyl)-N-(2-methylpropyl)-N-[(3S,5R)-5-(morpholin-4-ylcarbonyl)piperidin-3-yl]-1H-1,2,3-triazole-4-carboxamide hydrochloride]	97	62	–	–
N-{(3S,5R)-5-[(1R)-1-hydroxyethyl]piperidin-5-yl}-1-(4-methoxybutyl)-N-(2-methylpropyl)-1H-benzimidazole-2-carboxamide carboxamide dihydrochloride [Example 74-2]	–	–	96	54
N-{(3S,5R)-5-[(1S)-1-hydroxyethyl]piperidin-5-yl}-1-(4-methoxybutyl)-N-(2-methylpropyl)-1H-benzimidazole-2-carboxamide dihydrochloride [Example 74-1]	–	–	94	90
N-{(3S, 5R)-5-[(1R)-1-hydroxypropyl]piperidin-5-yl}-1-(4-methoxybutyl)-N-(2-methylpropyl)-1H-benzimidazole-2-carboxamide dihydrochloride [Example 75-2]	–	–	90	71
N-{(3S, 5R)-5-[(1S)-1-hydroxypropyl]piperidin-5-yl}-1-(4-methoxybutyl)-N-(2-methylpropyl)-1H-benzimidazole-2-carboxamide dihydrochloride [Example 75-1]	–	–	95	86
